Data reported in patent US20230116972A1, “CD38 MODULATORS AND METHODS OF USE THEREOF” (Cytokinetics, Inc., priority 2021, published 2023).

Experiments:
human CD38 = molecular target: T1, human CD38 (Homo sapiens, UniProt P28907); assay: human recombinant CD38 enzyme assay (hydrolysis of NAD+); format: biochemical; conditions: human recombinant CD38, 0.4 nM enzyme, 62.5 μM NAD+; read-out: hCD38 BioChem IC50
T1 sequence (P28907 1-300): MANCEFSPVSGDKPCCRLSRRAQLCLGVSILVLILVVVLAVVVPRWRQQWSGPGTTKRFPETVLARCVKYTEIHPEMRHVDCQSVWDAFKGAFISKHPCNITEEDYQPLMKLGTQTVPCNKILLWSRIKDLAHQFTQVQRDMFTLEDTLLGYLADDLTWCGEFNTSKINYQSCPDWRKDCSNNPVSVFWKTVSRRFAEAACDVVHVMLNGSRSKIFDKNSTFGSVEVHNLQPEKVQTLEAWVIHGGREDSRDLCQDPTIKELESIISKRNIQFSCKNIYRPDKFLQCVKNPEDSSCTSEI
Outline: (§1)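 Residual substrate after a one-hour room-temperature incubation of recombinant CD38 with NAD+ and test compound is measured by an ADH/diaphorase coupled resorufin signal (540 nm excitation, 590 nm emission); reduced NAD+ consumption reflects inhibition.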

mouse CD38 = molecular target: T2, mouse CD38 (Mus musculus, UniProt P56528); assay: mouse recombinant CD38 enzyme assay (hydrolysis of NAD+); format: biochemical; conditions: read-out: mCD38 BioChem IC50
T2 sequence (P56528 1-304): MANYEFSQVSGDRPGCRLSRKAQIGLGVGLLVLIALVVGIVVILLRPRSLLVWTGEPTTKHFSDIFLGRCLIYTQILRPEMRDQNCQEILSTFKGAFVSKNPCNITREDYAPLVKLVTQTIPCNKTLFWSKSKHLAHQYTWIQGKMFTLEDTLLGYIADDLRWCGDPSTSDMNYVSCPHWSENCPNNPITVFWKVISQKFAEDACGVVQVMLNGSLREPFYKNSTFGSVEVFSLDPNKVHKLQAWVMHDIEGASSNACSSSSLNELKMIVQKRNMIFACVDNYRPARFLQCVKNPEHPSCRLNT
Outline: as §1

[1] = molecular target: T3, endogenous CD38 in HL60 cells (Homo sapiens, UniProt P28907); assay: cellular CD38 assay in HL60 cells (cellular NAD levels); format: cell-based; conditions: all-trans retinoic acid, 24 hours, read-out: hCD38 HL60 ATRA NAD Cell Diaphorase IC50
T3 construct: endogenous in cells; host or cells: HL60 (leukemic cells, treated with all-trans retinoic acid)
T3 sequence (P28907 1-300): T1 sequence (P28907 1-300)
Procedure: The compounds described herein were also assayed for their ability to inhibit the endogenous CD38 in a native cellular environment in the cellular CD38 assay, which measures the ability of the compound to modulate cellular NAD levels. […] The assays were initiated by plating 20 μL of HL60 cells in culture medium, at a density of 20000 cells per well to a 384-well Corning™ Multiwell Plates. Compounds in DMSO were added to the plates in a volume of 120 nL using the Labcyte Echo Liquid Handlers. […] The plates are then incubated for 24 hours. 50 μL of a readout-solution containing 0.2 U/mL Diaphorase enzyme, 40 uM resazurin, 10 uM FMN, 0.8 U/mL Alcohol dehydrogenase, 3% ethanol, 0.4 mg/mL bovine serum albumin, 0.2% Triton X-100 in 100 mM Tris-HCl, 30 mM EDTA, pH 8.4. The plates were read for fluorescence (Excitation/Emission=540 nm/590 nm) using an EnVision plate reader after 60 mins of incubation at ambient temperature. Note that, in Table 5, the “Compound No” corresponds to the compound numbers in Table 1.

SMILES	IC50 (human CD38) [µM]	IC50 (mouse CD38) [µM]	IC50 [1] [µM]
Cn1cncc1-c1ccnc(C(=O)Nc2ccc(OC(F)F)nc2)n1 [Compound 276, N-(6-(difluoromethoxy)pyridin-3-yl)-4-(1-methyl-1H-imidazol-5-yl)pyrimidine-2-carboxamide]	0.0014	0.0044	0.209
O=C(Nc1cccnc1)c1cccc(-c2cncs2)n1 [Compound 11, N-(pyridin-3-yl)-6-(thiazol-5-yl)picolinamide]	2.11	0.741	8.05
O=C(N[C@H]1CC[C@H](C(F)F)CC1)c1cncc(-n2ccnc2)n1 [Compound 89, N-((1r,4r)-4-(difluoromethyl)cyclohexyl)-6-(1H-imidazol-1-yl)pyrazine-2-carboxamide]	0.022	0.01	0.915
O=C(N[C@H]1C[C@H](c2ccc(F)cc2)C1)c1nccc(-n2ccnc2)n1 [Compound 238, N-((1r,3r)-3-(4-fluorophenyl)cyclobutyl)-4-(1H-imidazol-1-yl)pyrimidine-2-carboxamide]	0.0432	0.0409	2.38
Cc1cc(C(=O)Nc2ccc(C(F)(F)F)nc2)nc(-n2ccnc2)n1 [Compound 117, 2-(1H-imidazol-1-yl)-6-methyl-N-(6-(trifluoromethyl)pyridin-3-yl)pyrimidine-4-carboxamide]	0.004	0.001	0.35
CC(C)c1cc(C(=O)Nc2ccc(C(F)F)nc2)nc(-n2ccnc2)n1 [Compound 169, N-(6-(difluoromethyl)pyridin-3-yl)-2-(1H-imidazol-1-yl)-6-isopropylpyrimidine-4-carboxamide]	0.022	0.015	2.25
O=C(Nc1ccc(C(F)(F)F)nc1)c1cc(C(F)(F)F)nc(-c2cncs2)n1 [Compound 115, 2-(thiazol-5-yl)-6-(trifluoromethyl)-N-(6-(trifluoromethyl)pyridin-3-yl)pyrimidine-4-carboxamide]	1.26	0.494	–
O=C(Nc1cccnc1)c1cc(C(F)(F)F)cc(-c2cncs2)n1 [Compound 41, N-(pyridin-3-yl)-6-(thiazol-5-yl)-4-(trifluoromethyl)picolinamide]	1.21	0.244	–
O=C(Nc1ccc(C(F)F)nc1)c1cc(N2CCCC2)cc(-c2cncs2)n1 [Compound 179, N-(6-(Difluoromethyl)pyridin-3-yl)-4-(pyrrolidin-1-yl)-6-(thiazol-5-yl)picolinamide]	1.38	0.142	–
O=C(NC1(c2ccc(C(F)(F)F)cc2)COC1)c1cccc(-n2ccnc2)n1 [Compound 58, 6-(1H-imidazol-1-yl)-N-(3-(4-(trifluoromethyl)phenyl)oxetan-3-yl)picolinamide]	2.18	1.04	–

Further lines, results first:

IC50 (human CD38) [µM]	IC50 (mouse CD38) [µM]	IC50 [1] [µM]	SMILES
0.0107	0.0032	1.5	Cn1cncc1-c1nc(C(=O)N[C@@H]2C[C@@H]3[C@H](C2)C3(F)F)cc(C2CCOCC2)n1 [Compound 280, N-((1R,3s,5S)-6,6-difluorobicyclo[3.1.0]hexan-3-yl)-2-(1-methyl-1H-imidazol-5-yl)-6-(tetrahydro-2H-pyran-4-yl)pyrimidine-4-carboxamide]
0.0715	0.0287	2.76	CCO[C@H]1CC[C@H](NC(=O)c2nccc(-c3cncn3C)n2)CC1 [Compound 255, N-((1r,4r)-4-ethoxycyclohexyl)-4-(1-methyl-1H-imidazol-5-yl)pyrimidine-2-carboxamide]
0.017	0.001	1.4	Cc1cc(C(=O)NC2CC3(C2)CC(F)(F)C3)nc(-c2cncn2C)n1 [Compound 124, N-(6,6-difluorospiro[3.3]heptan-2-yl)-6-methyl-2-(1-methyl-1H-imidazol-5-yl)pyrimidine-4-carboxamide]
0.01	0.001	0.952	Cc1cc(C(=O)N[C@H]2CC[C@H](C)CC2)nc(-c2cncn2C)n1 [Compound 123, 6-methyl-2-(1-methyl-1H-imidazol-5-yl)-N-((1r,4r)-4-methylcyclohexyl)pyrimidine-4-carboxamide]
0.0038	0.001	1.13	Cn1cncc1-c1nc(C(=O)Nc2ccc(C(F)(F)F)nc2)cc(C2CCOCC2)n1 [Compound 198, 2-(1-methyl-1H-imidazol-5-yl)-6-(tetrahydro-2H-pyran-4-yl)-N-(6-(trifluoromethyl)pyridin-3-yl)pyrimidine-4-carboxamide]
0.0025	0.0003	0.403	COCCOc1cc(C(=O)Nc2ccc(C(F)(F)F)nc2)nc(-c2cncn2C)n1 [Compound 267, 6-(2-methoxyethoxy)-2-(1-methyl-1H-imidazol-5-yl)-N-(6-(trifluoromethyl)pyridin-3-yl)pyrimidine-4-carboxamide]
0.01	0.001	1.01	Cc1cc(C(=O)N[C@H]2CC[C@H](C(F)F)CC2)nc(-c2cncn2C)n1 [Compound 122, N-((1r,4r)-4-(difluoromethyl)cyclohexyl)-6-methyl-2-(1-methyl-1H-imidazol-5-yl)pyrimidine-4-carboxamide]
0.0243	0.0136	–	Cn1cncc1-c1ccnc(C(=O)N[C@H]2CC[C@H](OCC(F)(F)F)CC2)n1 [Compound 343, 4-(1-methyl-1H-imidazol-5-yl)-N-((1r,4r)-4-(2,2,2-trifluoroethoxy)cyclohexyl)pyrimidine-2-carboxamide]
0.028	0.019	–	Cn1cncc1-c1nc(C(=O)Nc2ccc(C(F)(F)F)nc2)cc(C(C)(C)O)n1 [Compound 176, 6-(2-hydroxypropan-2-yl)-2-(1-methyl-1H-imidazol-5-yl)-N-(6-(trifluoromethyl)pyridin-3-yl)pyrimidine-4-carboxamide]
0.014	0.002	–	CO[C@H]1CC[C@H](NC(=O)c2cc(C3CCC3)nc(-c3cncn3C)n2)CC1 [Compound 181, 6-Cyclobutyl-N-((1r,4r)-4-methoxycyclohexyl)-2-(1-methyl-1H-imidazol-5-yl)pyrimidine-4-carboxamide]
0.319	0.166	–	CO[C@H]1CC[C@H](NC(=O)c2nc(-c3cncn3C)cnc2C)CC1 [Compound 298, N-((1r,4r)-4-methoxycyclohexyl)-3-methyl-6-(1-methyl-1H-imidazol-5-yl)pyrazine-2-carboxamide]
0.0159	0.0021	–	Cn1cncc1-c1nc(C(=O)N[C@H]2CC[C@H](OC(F)F)CC2)cc(C2CCC(F)(F)CC2)n1 [Compound 324, 6-(4,4-difluorocyclohexyl)-N-((1r,4r)-4-(difluoromethoxy)cyclohexyl)-2-(1-methyl-1H-imidazol-5-yl)pyrimidine-4-carboxamide]
0.933	0.203	–	COCCO[C@H]1C[C@H](NC(=O)c2nccc(-c3cncn3C)n2)C1 [Compound 222, N-((1r,3r)-3-(2-methoxyethoxy)cyclobutyl)-4-(1-methyl-1H-imidazol-5-yl)pyrimidine-2-carboxamide]
0.057	0.013	–	CO[C@H]1CC[C@H](NC(=O)c2cc(C(C)(C)O)nc(-c3cncn3C)n2)CC1 [Compound 178, 6-(2-Hydroxypropan-2-yl)-N-((1r,4r)-4-methoxycyclohexyl)-2-(1-methyl-1H-imidazol-5-yl)pyrimidine-4-carboxamide]
